Laboratory results: patent US20230057602A1, “METHODS OF TREATMENT WITH ANTIBODIES AGAINST BCMA AND CD3” (BRISTOL-MYERS SQUIBB COMPANY, priority 2019, published 2023)

What was measured:
Assay type in all cases: cell-based, human
[1] = test system: MM1S BCMA-expressing myeloma cell line co-cultured with T-cells; experiment: CC-93269-induced cytokine secretion, T-cell co-culture with MM1S; details: 1 μM DEX vs DMSO control, highest concentration of CC-93269, 72 hours, 3 donors
[2] = test system: KMS12-PE BCMA-expressing myeloma cell line co-cultured with T-cells; experiment: CC-93269-induced cytokine secretion, T-cell co-culture with KMS12-PE; details: 1 μM DEX vs DMSO control, highest concentration of CC-93269, 72 hours, 3 donors
[3] = test system: H929 BCMA-expressing myeloma cell line co-cultured with T-cells; experiment: CC-93269-induced cytokine secretion, T-cell co-culture with H929; details: 1 μM DEX vs DMSO control, highest concentration of CC-93269, 72 hours, 3 donors
BCMA+ tumour cell lines = experiment: CC-93269-induced redirected lysis of BCMA+ tumour cell lines (overall); details: co-treatment with CC-93269
Method: The cocultures were incubated at 37° C. with 5% CO2. After 72 hours of incubation, culture supernatants were harvested and stored at −80° C. The cells were labeled with Live/Dead Fixable Aqua Dead Cell Stain, according to the manufacturer's instructions for 30 minutes at RT. Subsequently, cells were stained with antibodies against the following cell surface markers: CD2, CD3, CD4, CD8, CD69, CD25, HLA-DR, and CD154 in a final volume of 50 μL of flow staining buffer. After staining for cell surface molecules, the cells were washed once with 150 μL flow staining buffer, resuspended in 50 μL of BD Cytofix fixation buffer, and incubated for 30 minutes at RT. Cells were washed with 150 μL of flow staining buffer and resuspended in a final volume of 50 μL of flow staining buffer for analysis on an IQUE Screener plus instrument (Intellicyt, Albuquerque, N. Mex.). […] The IC50 values were calculated using non-linear regression analysis, sigmoidal dose-response using GraphPad Prism (version 5.0) software.

[4] = test system: BCMA-expressing tumour cell lines co-cultured with T-cells; experiment: CC-93269-mediated cytokine release across the four co-cultures; details: 1 μM DEX vs DMSO control, highest concentration of CC-93269
[5] = test system: SKMM2 BCMA-expressing myeloma cell line co-cultured with T-cells; experiment: CC-93269-induced cytokine secretion, T-cell co-culture with SKMM2; details: 1 μM DEX vs DMSO control, highest concentration of CC-93269, 72 hours, 3 donors

## C[C@@H]1C[C@H]2[C@@H]3CCC4=CC(=O)C=C[C@]4(C)[C@@]3(F)[C@@H](O)C[C@]2(C)[C@@]1(O)C(=O)CO [Dexamethasone, dexamethasone]
[1]
  % Reduction of CC-93269-induced IL-2 secretion, Mean: 57.6%
  % Reduction of CC-93269-induced TNF-α secretion, Mean: 50.3%
[2]
  % Reduction of CC-93269-induced IL-2 secretion, Mean: 48.3%
  % Reduction of CC-93269-induced TNF-α secretion, Mean: 53.9%
[3]
  % Reduction of CC-93269-induced IL-2 secretion, Mean: 74.1%
  % Reduction of CC-93269-induced TNF-α secretion, Mean: 61.8%
BCMA+ tumour cell lines
  effect of dexamethasone on CC-93269-induced redirected lysis / cytotoxic activity: minimally affected
BCMA+ tumour cell lines; listed as dexamethasone
  effect of dexamethasone on CC-93269-induced redirected lysis / cytotoxic activity: minimal suppressive impact
[4]
  lowering of CC-93269-mediated release of IL-2: 48.3-74.1%
  lowering of CC-93269-mediated release of TNF-α: 46.3-61.8%
[5]
  % Reduction of CC-93269-induced IL-2 secretion, Mean: 56.5%
  % Reduction of CC-93269-induced TNF-α secretion, Mean: 46.3%
